The record followed here is patent US20210317165A1, “ZP3 FRAGMENTS IN IMMUNOTHERAPY OF OVARIAN CANCER” (LABORATOIRE HRA-PHARMA, priority 2018, published 2021).

The assay relates to ZP3-specific TCD8. Briefly: ELISPOT IFNγ of spleen TCD8 stimulated ex vivo with APC pulsed with each peptide separately. In kind it is in vivo, HLA-A2/DR1 transgenic mice. To be noted: mice immunized with pool A+B, restimulation with each peptide separately. As for the experimental part:
HLA-A2/DR1 transgenic mice received three subcutaneous administrations of peptides pool and GM-CSF/CpG adjuvant as follow:
A first group (group 1) of mice received 100 μg/mice of a pool of peptides A+B (SEQ ID NO: 1, 2, 4, 5, 6, 10, 12, 13, 15 and 17) and GM-CSF adjuvant at Day 0 (D0). At D1, CpG wad injected. 100 μg/mice of pool of peptides A+B was injected at D14 and D30. Mice were sacrificed and analyzed at D40.
The ZP3-specific TCD8 response was measured by ex vivo stimulation of TCD8 from spleen of mice with APC pulsed with peptides (each peptides separately). The number of activated TCD8 cells was measured by ELISPOT IFNγ.

As to “FTVDVFHFA (Peptide of human ZP3) [Peptide 5, hZP3 fragment, position 263]”, the “ZP3-specific TCD8 response” value (FIG. 2, listed as SEQ ID NO: 5) is “strong specific TCD8 response (statistically significant)”.

On to “LRLMEENWNA (Peptide of human ZP3) [Peptide 6, hZP3 fragment, position 174]”, for which the “ZP3-specific TCD8 response” value (FIG. 2, listed as SEQ ID NO: 6) is on record as “strong specific TCD8 response (statistically significant)”.

For the sequence “NMIYITCHL (Peptide of human ZP3) [Peptide 13, hZP3 fragment, position 276]”, for the setting “FIG. 2, listed as SEQ ID NO: 13”, the “ZP3-specific TCD8 response” value is recorded as “strong specific TCD8 response (statistically significant)”.
